Source: patent US12234476B2, “VCN enhancer compositions and methods of using the same” (bluebird bio, Inc., priority 2016, dated 2025)

How the values were obtained:
hCD34+ cells [1] = experiment: Vector copy number (VCN) analysis by qPCR of lentivirus-transduced hCD34+ cells (pooled or individual MethoCult colonies, liquid culture); assay type: cell-based, human; settings: for VCN with increasing concentrations of PGE2: pooled colonies
Experimental: (§1) Washed cells were resuspended in 2 mL Stem Cell Growth Medium (SCGM)+cytokines and transferred to a standard 12-well non-adherent tissue culture plate. Cells were maintained for an additional 6 days in a standard humidified tissue culture incubator (5% CO2) and then subjected to Vector Copy Number (VCN) analysis or single-cell nested PCR to determine transduction efficiency. Both VCN and the single-cell nested PCR assay were performed with qPCR using primers and probes specific to both the vector and an endogenous control gene. VCN was determined by dividing the amount of vector signal by the amount of the endogenous control gene. For the single-cell nested PCR assay, wells that contained a cell positive for the endogenous control gene and wells that contained a marked cell positive for both the vector and the endogenous control gene were enumerated, and the proportion of marked cells, or transduction efficiency, was calculated.
(§2) Washed cells were resuspended in 200 μL SCGM and then transferred to 3 mL aliquots of cytokine-supplemented methylcellulose (for example, Methocult M4434 Classic). 1.1 mL was then transferred to parallel 35-mm tissue culture dishes using a blunt 16-gauge needle. Dishes were maintained in a standard humidified tissue culture incubator for 12-16 days and colonies were scored for size, morphology, and cellular composition. Individual colonies were then picked for subsequent VCN analysis or the contents of an entire 35-mm dish were pooled and then subject to VCN analysis.

[2] = test system: hCD34+ cells transplanted into NSG mice; experiment: In vivo VCN of engrafted human cells in bone marrow of NSG mice
Source text: HSCs transduced with lentivirus were transplanted into NOD/SCID Gamma (NSG) mice to assess the effect of candidate compounds on viral transduction of human long-term hematopoietic stem cells. Transduced cells were washed and resuspended in phosphate-buffered saline (PBS) and transplanted into the tail vein of sub-myeloablated adult NSG mice, with minimal residual toxicity. Mice were housed in a pathogen-free environment per standard IACUC animal care guidelines. At 4 months post-transplant bone marrow (BM) was harvested from both femurs and analyzed for both VCN and engraftment of human cells by staining with an anti-hCD45 antibody (BD #561864) followed by flow cytometry analysis.
Meta-analysis of NSG transplants with PGE2-treated lentiviral transduced hCD34+ cells from healthy donors (n=3). Human CD34^+ cells were transplanted into sub-myeloablated female NSG mice and bone marrow (BM) was analyzed at 4 months post-transplant. BM was harvested from both femurs of NSG mice and half of the sample was stained with anti-hCD45 for approximately 30 minutes at 4° C. Following incubation, samples were washed and analyzed for human CD45^+ cells via flow analysis using an anti-hCD45 antibody (BD #561864). […] FIG. 1A. The mean VCN of engrafted PGE2-treated hCD34^+ cells was about two-fold higher than the mean VCN of control cells at 4 months post-transplant. FIG. 1B.
A low-transducing cell lot of hCD34^+ cells (VCN of 0.3 under standard conditions) was transduced with lentiviral vector in the presence of protamine sulfate, PGE2, F108 (200 μg/mL or 1000 μg/mL), or the combination of PGE2 and F108 for 24 hours. Following transduction, cells were washed and immediately injected into busulfan-treated NSG mice.
Two months post-transplant, 5 mice/group were sacrificed and BM was harvested and analyzed to evaluate in vivo VCN. The in vivo VCN of engrafted cells transduced in the presence of protamine sulfate was very similar to the graft VCN (˜0.3). in vivo VCN increased approximately 2-fold in PGE2-treated cells. […] FIG. 10C.

hCD34+ cells [3] = experiment: Colony formation in MethoCult / methylcellulose; assay type: cell-based, human
Experimental: as §2
Colonies in MethoCult were enumerated using STEMvision (Stemcell Technologies). […] FIG. 3.

hCD34+ cells [4] = experiment: Transduction efficiency / % LVV+ (single-cell nested PCR or individual colony qPCR); assay type: cell-based, human; settings: for transduction efficiency: low-transducing cell lot, individual colony qPCR (Example 11)
Experimental: as §1
After a 7 day liquid culture, cells were collected and single-cell sorted into a 96-well plate. Cells were lysed and subjected to nested PCR to determine presence of LVV in a single cell. Percentage of cells containing both LVV and an endogenous control gene was determined from number of cells containing the endogenous control gene. […] FIG. 5B.
% LVV+: Single cells were isolated by FACS and deposited in 96-well plates containing lysis buffer. Following lysis, the viral-specific sequence from a lentiviral vector encoding a β-globin variant was amplified by PCR along with a control genomic sequence not present in the vector. The PCR products from each single cell were then analyzed by qPCR for presence of genomic sequence, indicating a successfully captured cell. […] Fraction of vector positive cells was then calculated across the entire set of sampled cells. The % LVV+ of the β0/β0 hCD34+ cells was about 77%. FIG. 18, right panel.

[5] = test system: long-term HSCs (CD34+CD38-CD45RA-CD90+CD49f+); experiment: GFP lentiviral vector transduction of phenotypic long-term HSCs (flow cytometry); assay type: cell-based, human; settings: GFP LVV; 4 days of culture
Source text: Human CD34^+ cells were transduced with a GFP lentiviral vector (LVV) and subsequently cultured in cytokine-containing media. After 4 days of culture, these cells were stained for cell surface markers that phenotypically characterize long-term HSCs (CD34^+CD38^−CD45RA^−CD90^+CD49f^+). […] The proportion of transduced phenotypic long-term HSCs increased to >90% in cells transduced in the presence of F108, with or without the supplementation of PGE2. FIG. 22.

Human CD34+ cells = experiment: ALDP expression by intracellular staining and flow cytometry; assay type: cell-based; settings: MND-ABCD1 LVV; AMN, ALD patients and healthy donors; day 4 or 5; vs PS
Source text: Human CD34^+ cells from AMN patients (FIG. 26, panels A-D), ALD patients (FIG. 26, panels E-H), and healthy donors (HD; FIG. 26, panels I-L) were transduced with a lentiviral vector (LVV) lacking a WPRE and comprising an MND promoter operably linked to a polynucleotide encoding ABCD1. […] Cultured cells were stained intracellularly for ALDP expression on day 4 or 5 and analyzed by flow cytometry.

[6] = test system: hCD34+ cells transplanted into NSG mice; experiment: Engraftment and differentiation of transduced hCD34+ cells in NSG mice (flow cytometry); assay type: in vivo
Source text: HSCs transduced with lentivirus were transplanted into NOD/SCID Gamma (NSG) mice to assess the effect of candidate compounds on viral transduction of human long-term hematopoietic stem cells. […] Mice were housed in a pathogen-free environment per standard IACUC animal care guidelines.
Meta-analysis of NSG transplants with PGE2-treated lentiviral transduced hCD34+ cells from healthy donors (n=3). Human CD34^+ cells were transplanted into sub-myeloablated female NSG mice and bone marrow (BM) was analyzed at 4 months post-transplant. BM was harvested from both femurs of NSG mice and half of the sample was stained with anti-hCD45 for approximately 30 minutes at 4° C. […] FIG. 1A. […] FIG. 1B.
The BM was analyzed for engraftment of hCD34^+ cells. Cells were stained with an antibody cocktail recognizing various cell surface markers (CD45, CD33, CD3, CD19) and analyzed via flow cytometry.

Q: protamine sulfate was tested. Which “VCN of pooled colonies” value (hCD34+ cells [1]; EF1α-IL2Rγ LVV, MOI 10 or 30) did it give?
A: Its value is “below 1.5”.

Q: And the “VCN of pooled colonies” value (hCD34+ cells [1]; EF1α-TPP1 or MND-TPP1 LVV, MOI 5 or 15)?
A: The value was “below 1.5”.

Q: What about the “distribution of individual colony VCNs” value (hCD34+ cells [1]; F108 and PGE2 at MOI 10, protamine sulfate at MOI 25) of the same compound?
A: The value was 0-6.

Q: What about the “in vivo VCN of engrafted cells” value ([2]; four months post-transplant) of the same compound?
A: The value was about 0.3.

Q: And the “in vivo VCN of engrafted cells” value ([2]; two months post-transplant)?
A: The value was about 0.3.

Q: And the “ability of hematopoietic progenitors to form colonies (erythroid or myeloid)” value (hCD34+ cells [3]; 8 μg/mL PS, 10 or 1000 μg/mL F108, 1000 μg/mL F108 with 8 μg/mL PS)?
A: Its value is “Neither PS nor F108 significantly affected”.

Q: And the colony formation (hCD34+ cells [3]; IL2Rγ LVV (Example 26))?
A: Its colony formation is “did not significantly impact colony formation”.

Q: And the “% LVV+ colonies” value (hCD34+ cells [4]; IL2Rγ LVV from PrCL1 or PrCL2)?
A: The value was 20-30%.

Q: What about the “% LVV+ colonies” value (hCD34+ cells [4]; IL2Rγ LVV, transiently prepared) of the same compound?
A: Its value is 50-60%.

Q: What about the transduction efficiency (hCD34+ cells [4]) of the same compound?
A: Its transduction efficiency is about 20%.

Q: And the “proportion of phenotypic long-term HSCs expressing GFP” value [5]?
A: The value was “approximately 30%”.

Q: Which “fold increase in mean VCN compared to protamine sulfate” value (hCD34+ cells [1]; 24 hour transduction, 14 day MethoCult pooled colonies (Example 6)) does the source give for CCCCC[C@H](O)/C=C/[C@H]1[C@H](O)CC(=O)[C@@H]1C/C=C\CCCC(=O)O [PGE2, prostaglandin E2] here?
A: The value was 2 fold.

Q: And the “VCN at D7 in cytokine cultured cells and D14 pooled methylcellulose colonies” value (hCD34+ cells [1]; MND-ABCD1 LVV, AMN, ALD patients and healthy donors)?
A: The value was “increased VCN”.

Q: What about the “VCN with increasing concentrations of PGE2” value (hCD34+ cells [1]; in the presence of F108, PGE2 increased at least 10-fold) of the same compound?
A: Its value is “does not result in a dose-dependent increase in VCN”.

Q: And the “VCN with increasing concentrations of PGE2” value (hCD34+ cells [1]; in the presence of protamine sulfate)?
A: The value was “dose-dependent increase in VCN”.

Q: And the “increase of mean VCN of graft vs protamine sulfate” value (hCD34+ cells [1]; low-transducing cell lot, 24 hours (Example 11))?
A: The value was “approximately 3 fold”.

Q: What about the “mean VCN of engrafted cells vs control cells” value ([2]; 4 months post-transplant, healthy donors n=3) of the same compound?
A: Its value is “about two-fold”.

Q: What about the “increase of in vivo VCN over protamine sulfate” value ([2]; four months post-transplant) of the same compound?
A: The value was “approximately 1.6 fold”.

Q: What about the “increase of in vivo VCN over protamine sulfate” value ([2]; two months post-transplant) of the same compound?
A: The value was “approximately 2 fold”.

Q: What about the “number of cells expressing ALDP” value (Human CD34+ cells) of the same compound?
A: The value was “increased the number of cells expressing ALDP”.

Q: And the “colony formation ability of transduced cells” value (hCD34+ cells [3]; 24 hour transduction, 14 day MethoCult (Example 4))?
A: The value was “did not alter the colony formation ability”.

Q: And the transduction efficiency (hCD34+ cells [4])?
A: The transduction efficiency was about 40%.

Q: And the “effect on hCD34+ engraftment” value ([6]; 2 and 4 months post-transplant)?
A: The value was “no statistically significant effect”.

Q: And the “proportion of myeloid (CD33+) or lymphoid (CD3+ or CD19+) cells” value ([6]; 2 and 4 months post-transplant)?
A: Its value is “no significant difference”.

Q: And the “percentage of hCD45+ cells in mouse BM (engraftment)” value ([6]; 4 months post-transplant, PGE2-treated vs control-treated)?
A: The value was “No statistically significant difference”.

Q: What about the “proportion of phenotypic long-term HSCs expressing GFP” value [5] of the same compound?
A: The value was 45%.
